Data taken from PubChem BioAssay AID652253 (Vanderbilt Specialized Chemistry Center, 2013).
Calls of active or inactive are those of the source. How the calls were made is not given here.

The compounds below were run against Proteinase-activated receptor 4 (Homo sapiens) (UniProt Q96RI0) (assay: PAR4 antagonist concentration-response, dose response, cell-based, CRC (AID 652253)). Settings: cells, PAR4-AP induced response.
Chain of Proteinase-activated receptor 4 (Homo sapiens) (Q96RI0 whole entry, looked up): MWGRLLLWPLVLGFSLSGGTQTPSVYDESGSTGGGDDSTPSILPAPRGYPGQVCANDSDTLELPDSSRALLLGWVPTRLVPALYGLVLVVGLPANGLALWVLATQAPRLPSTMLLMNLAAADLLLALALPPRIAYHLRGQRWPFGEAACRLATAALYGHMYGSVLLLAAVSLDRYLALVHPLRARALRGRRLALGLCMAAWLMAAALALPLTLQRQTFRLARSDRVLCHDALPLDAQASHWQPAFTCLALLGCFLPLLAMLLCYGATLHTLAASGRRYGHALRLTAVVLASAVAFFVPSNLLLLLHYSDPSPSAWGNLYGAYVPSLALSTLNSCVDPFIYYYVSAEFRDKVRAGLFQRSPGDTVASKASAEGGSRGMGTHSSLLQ

| IC50 | SMILES |
| --- | --- |
| inactive | COc1ccc(-c2cn(Cc3cccc(Cl)c3)c3ccccc23)cn1 |
| inactive | COc1ccc(-c2cn(Cc3cccc(F)c3)c3ccccc23)cn1 |
| inactive | COc1ccc(-c2cn(Cc3ccccc3)c3ccccc23)cn1 |

The next lines start with the compound.

| SMILES | IC50 |
| --- | --- |
| COc1ccc(COc2ccc(C(=O)NCCC(C)(C)C)cc2)cc1 | 139 nM |
| COc1ccc(-c2cn(Cc3cccc(Br)c3)c3ccccc23)cn1 | inactive |

Same assay, conditions: cells, PAR4-AP induced response, at 10 µM (top of the series)

| % PAR4-AP response remaining | SMILES |
| --- | --- |
| inactive | COc1ccc(-c2cn(Cc3cccc(S(C)(=O)=O)c3)c3ccccc23)cn1 |
| inactive | COc1ccc(-c2cn(Cc3ccccc3)c3ccccc23)cc1 |
| inactive | Fc1ccc(-c2cn(Cc3ccccc3)c3ccccc23)cn1 |
